Literature values in patent US12157728B2, “Targeting of endoplasmic reticulum dysfunction and protein folding stress to treat neurological conditions” (ALS Therapy Development Institute, priority 2018, dated 2024).
Structures can show the parent of a compound that is named as a salt.

What was measured:
[1] = in vivo
[2] = tested on: ER stress-mediated apoptosis; settings: induced by tunicamycin
[3] = tested on: SOD1 mice
[4] = tested on: β-amyloid-induced neuronal death
[5] = tested on: PC12 cells
[6] = tested on: GADD34/protein phosphatase 1 (PP1)
[7] = not given; remark: listed apart in the source

SMILES | solubility in aqueous solutions | clearance [1] | ER stress-mediated apoptosis [2] | motor neuron degeneration [3] | survival [3] | β-amyloid-induced neuronal death and microglial activation [4] | cell death induced by α-synuclein [5] | eIF2α dephosphorylation via GADD34/PP1 complex [6] | solubility in 0.9% saline and aqueous buffers ([7]; 0.9% saline and aqueous buffers at or below pH 2.0) | solubility in aqueous buffers ([7]; aqueous buffers at or above pH 3.0) | solubility in water ([7]; water)
O=C(/C=C/c1ccccc1)NC(NC(=S)Nc1cccc2cccnc12)C(Cl)(Cl)Cl (centres unmarked) [Salubrinal, N-(2,2,2-trichloro-1-(3-(quinolin-8-yl)thioureido)ethyl)cinnamamide] | low solubility | rapid clearance | inhibit ER stress-mediated apoptosis | slowed motor neuron degeneration | extended survival | attenuate β-amyloid-induced neuronal death and microglial activation | protected PC12 cells from cell death | prevent eIF2α dephosphorylation | – | – | –
CCCCCCCCc1ccc(CCC(N)(CO)CO)cc1 [Fingolimod hydrochloride] | – | – | – | – | – | – | – | – | soluble | very slightly soluble or practically insoluble | > 10%
